# Molecular target: ROMK (Homo sapiens (Human), UniProt P48048)
# Assay: Thallium Flux Assay
# Type: cell-based
# Description: A Thallium Flux Assay was performed on the compounds of the Examples. This assay has been described previously; see, e.g., PCT Published Application WO 2013/062900.
# ROMK, sequence (P48048 whole entry): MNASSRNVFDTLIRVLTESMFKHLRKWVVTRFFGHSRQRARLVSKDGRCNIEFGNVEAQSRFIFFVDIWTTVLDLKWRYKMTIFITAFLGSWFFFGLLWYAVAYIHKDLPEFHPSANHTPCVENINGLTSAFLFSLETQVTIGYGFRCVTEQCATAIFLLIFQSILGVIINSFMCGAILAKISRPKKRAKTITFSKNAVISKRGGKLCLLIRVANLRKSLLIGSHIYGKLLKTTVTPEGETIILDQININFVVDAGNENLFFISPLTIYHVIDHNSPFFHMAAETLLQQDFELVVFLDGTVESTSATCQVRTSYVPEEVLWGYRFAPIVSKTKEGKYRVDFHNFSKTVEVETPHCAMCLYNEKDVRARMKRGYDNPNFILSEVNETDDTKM
row,Compound,IC50
1,"CC1=C(N2CCOC3(CCN(CC(O)c4cnc(-n5cnnn5)nc4)CC3)C2=O)COC1=O (single isomer, unassigned) [Example 46B, 9-(2-(2-(1H-tetrazol-1-yl)pyrimidin-5-yl)-2-hydroxyethyl)-4-(4-methyl-5-oxo-2,5-dihydrofuran-3-yl)-1-oxa-4,9-diazaspiro[5.5]undecan-5-one]",0.0581 µM
2,"CC1=C(N2CCOC3(CCN(C[C@H](F)c4ccc5c(c4C)COC5=O)CC3)C2=O)COC1=O [Example 57, (R)-9-(2-fluoro-2-(4-methyl-1-oxo-1,3-dihydroisobenzofuran-5-yl)ethyl)-4-(4-methyl-5-oxo-2,5-dihydrofuran-3-yl)-1-oxa-4,9-diazaspiro[5.5]undecan-5-one]",0.218 µM
3,"CC1=C(N2CCNC3(CCN(CC(O)c4ccc(-n5cnnn5)cc4)CC3)C2=O)COC1=O (single isomer, unassigned) [Example 5B, 9-(2-(4-(1H-tetrazol-1-yl)phenyl)-2-hydroxyethyl)-4-(4-methyl-5-oxo-2,5-dihydrofuran-3-yl)-1,4,9-triazaspiro[5.5]undecan-5-one]",0.0368 µM
4,"CC1=C(N2CCOC3(CCN(CCc4cnc(-n5cnnn5)cn4)CC3)C2=O)COC1=O [Example 52, 9-(2-(5-(1H-tetrazol-1-yl)pyrazin-2-yl)ethyl)-4-(4-methyl-5-oxo-2,5-dihydrofuran-3-yl)-1-oxa-4,9-diazaspiro[5.5]undecan-5-one]",0.0393 µM
5,"CC1=C(N2CCOC3(CCN(CCc4ccc5c(c4C)COC5=O)CC3)C2=O)COC1=O [Example 49, 9-(2-(4-methyl-1-oxo-1,3-dihydroisobenzofuran-5-yl)ethyl)-4-(4-methyl-5-oxo-2,5-dihydrofuran-3-yl)-1-oxa-4,9-diazaspiro[5.5]undecan-5-one]",0.0524 µM
6,"CC1=C(N2CCOC3(CCN(C[C@H](O)c4ccc5c(c4C)COC5=O)CC3)CC2)COC1=O (single isomer, unassigned) [Example 41]",0.0322 µM
7,"CC1=C(N2CCCOC3(CCN(C[C@H](O)c4ccc5c(c4C)COC5=O)CC3)C2=O)COC1=O [Example 37, (R)-3-(2-hydroxy-2-(4-methyl-1-oxo-1,3-dihydroisobenzofuran-5-yl)ethyl)-11-(4-methyl-5-oxo-2,5-dihydrofuran-3-yl)-7-oxa-3,11-diazaspiro[5.6]dodecan-12-one]",0.285 µM
8,"CC1=C(N2CCCOC3(CCN(CC(O)c4ccc(-n5cnnn5)nc4C)CC3)C2=O)COC1=O (single isomer, unassigned) [Example 38, 3-(2-hydroxy-2-(2-methyl-6-(1H-tetrazol-1-yl)pyridin-3-yl)ethyl)-11-(4-methyl-5-oxo-2,5-dihydrofuran-3-yl)-7-oxa-3,11-diazaspiro[5.6]dodecan-12-one]",0.526 µM
9,"Cc1nc(-n2cnnn2)ccc1C(O)CN1CCC2(CC1)CCN(C1=CC(=O)OC1)C(=O)O2 (single isomer, unassigned) [Example 27, 9-(2-hydroxy-2-(2-methyl-6-(1H-tetrazol-1-yl)pyridin-3-yl)ethyl)-3-(5-oxo-2,5-dihydrofuran-3-yl)-1-oxa-3,9-diazaspiro[5.5]undecan-2-one]",0.0655 µM
10,"CC1=C(N2CCOC3(CCN(CCc4ccc(-n5cnnn5)nc4)CC3)C2=O)COC1=O [Example 53, 9-(2-(6-(1H-tetrazol-1-yl)pyridin-3-yl)ethyl)-4-(4-methyl-5-oxo-2,5-dihydrofuran-3-yl)-1-oxa-4,9-diazaspiro[5.5]undecan-5-one]",0.0131 µM
11,"CC1=C(N2CCOC3(CCN(CC(O)c4cnc(-n5cnnn5)cn4)CC3)CC2)COC1=O (single isomer, unassigned) [Example 40, 4-(3-(2-(5-(1H-tetrazol-1-yl)pyrazin-2-yl)-2-hydroxyethyl)-7-oxa-3,10-diazaspiro[5.6]dodecan-10-yl)-3-methylfuran-2(5H)-one]",0.118 µM
12,"CC1=C(N2CCOC3(CC4CCC(C3)N4C[C@H](O)c3ccc4c(c3C)COC4=O)C2=O)COC1=O (stereo partly drawn) [Example 42, (1R,2′R,5S)-8-((R)-2-hydroxy-2-(4-methyl-1-oxo-1,3-dihydroisobenzofuran-5-yl)ethyl)-4′-(4-methyl-5-oxo-2,5-dihydrofuran-3-yl)-8-azaspiro[bicyclo[3.2.1]octane-3,2′-morpholin]-3′-one]",0.0874 µM
13,"CC1=C(N2C(=O)C3(CCN(C[C@H](O)c4ccc5c(c4C)COC5=O)CC3)OCC2C)COC1=O (single isomer, unassigned) [Example 11]",0.267 µM
14,"Cc1c([C@@H](O)CN2CCC3(CC2)CN(C2=C(Cl)C(=O)OC2)CCO3)ccc2c1COC2=O [Example 23, (R)-5-(2-(4-(4-chloro-5-oxo-2,5-dihydrofuran-3-yl)-1-oxa-4,9-diazaspiro[5.5]undecan-9-yl)-1-hydroxyethyl)-4-methylisobenzofuran-1(3H)-one]",0.0591 µM
15,O=C1OCC(N2CCOC3(CCN(C[C@H](O)c4ccc(-n5cnnn5)nc4)CC3)C2)=C1Cl [Example 24A],0.0115 µM
16,O=C1OCC(N2CCOC3(CCN(C[C@@H](O)c4ccc(-n5cnnn5)nc4)CC3)C2)=C1Cl [Example 24B],0.0345 µM

# More lines, now with the values ahead:
row,IC50,Compound
1,0.126 µM,"CC1=C(N2CCOC3(CCN(CC(O)c4ccc(-n5cnnn5)cc4C)CC3)C2)COC1=O (single isomer, unassigned) [Example 31A, 4-(9-(2-hydroxy-2-(2-methyl-4-(1H-tetrazol-1-yl)phenyl)ethyl)-1-oxa-4,9-diazaspiro[5.5]undecan-4-yl)-3-methylfuran-2(5H)-one]"
2,0.0919 µM,"COc1cc(-n2cnnn2)ccc1C(O)CN1CCC2(CC1)CN(C1=C(C)C(=O)OC1)CCO2 (single isomer, unassigned) [Example 33B, 4-(9-(2-hydroxy-2-(2-methoxy-4-(1H-tetrazol-1-yl)phenyl)ethyl)-1-oxa-4,9-diazaspiro[5.5]undecan-4-yl)-3-methylfuran-2(5H)-one]"
3,0.477 µM,"Cc1cc(-n2cnnn2)ccc1C(O)CN1CCC2(CC1)CN(C1=CC(=O)OC1)CCO2 (single isomer, unassigned) [Example 30A, 4-(9-(2-hydroxy-2-(2-methyl-4-(1H-tetrazol-1-yl)phenyl)ethyl)-1-oxa-4,9-diazaspiro[5.5]undecan-4-yl)furan-2(5H)-one]"
4,0.123 µM,"CC1=C(N2CCOC3(CCN(CC(O)c4ccc(-n5cnnn5)cc4F)CC3)C2)COC1=O (single isomer, unassigned) [Example 32B, 4-(9-(2-(2-fluoro-4-(1H-tetrazol-1-yl)phenyl)-2-hydroxyethyl)-1-oxa-4,9-diazaspiro[5.5]undecan-4-yl)-3-methylfuran-2(5H)-one]"
5,0.0374 µM,"CC1=C(N2CCOC3(CCN(CC(O)c4ccc(-n5cnnn5)cc4F)CC3)C2)COC1=O (single isomer, unassigned) [Example 32A, 4-(9-(2-(2-fluoro-4-(1H-tetrazol-1-yl)phenyl)-2-hydroxyethyl)-1-oxa-4,9-diazaspiro[5.5]undecan-4-yl)-3-methylfuran-2(5H)-one]"
6,0.026 µM,"CC1=C(N2CCOC3(CCN(CC(O)c4ccc(-n5cnnn5)cc4C)CC3)C2)COC1=O (single isomer, unassigned) [Example 31B, 4-(9-(2-hydroxy-2-(2-methyl-4-(1H-tetrazol-1-yl)phenyl)ethyl)-1-oxa-4,9-diazaspiro[5.5]undecan-4-yl)-3-methylfuran-2(5H)-one]"
